Reference: ChEMBL document CHEMBL4342442, “Usnic Acid Enaminone-Coupled 1,2,3-Triazoles as Antibacterial and Antitubercular Agents” (J Nat Prod, 2020)
Activity calls are given as the source filed them. The calls are words filed in the database; no cut-off is given here.

How the values were obtained:
Escherichia coli [1] = experiment: Antibacterial activity against Escherichia coli MTCC 443 assessed as reduction in microbial growth after 24 hrs by CLSI based microdilution method; type: functional; details: MTCC 443, 24 h
CHO-K1 = experiment: Cytotoxicity against CHOK1 cells assessed as reduction in cell viability after 24 hrs by MTT assay; type: cell-based; details: Cricetulus griseus, CHO-K1, 24 h
[2] = tested on: Mycobacterium tuberculosis; experiment: Antitubercular activity against Mycobacterium tuberculosis H37Rv assessed as reduction in microbial growth after 7 days by alamar blue assay; type: functional; details: 168 h
Pseudomonas aeruginosa [3] = experiment: Antibacterial activity against Pseudomonas aeruginosa MTCC 741 assessed as diameter of zone of inhibition at 200 ug/ml after 24 hrs by agar well diffusion method; type: functional
Staphylococcus aureus [4] = experiment: Antibacterial activity against Staphylococcus aureus MTCC 96 assessed as reduction in microbial growth after 24 hrs by CLSI based microdilution method; type: functional; details: MTCC 96, 24 h
[5] = Cytotoxicity against HEK cells assessed as reduction in cell viability after 24 hrs by MTT assay; type: cell-based, Homo sapiens
Pseudomonas aeruginosa [6] = experiment: Antibacterial activity against Pseudomonas aeruginosa MTCC 741 assessed as reduction in microbial growth after 24 hrs by CLSI based microdilution method; type: functional; details: MTCC 741, 24 h
Bacillus subtilis [7] = experiment: Antibacterial activity against Bacillus subtilis MTCC 441 assessed as diameter of zone of inhibition at 200 ug/ml after 24 hrs by agar well diffusion method; type: functional; details: MTCC 441, 24 h, read-out: DIZ
[8] = tested on: Staphylococcus epidermidis; experiment: Antibacterial activity against Staphylococcus epidermidis assessed as diameter of zone of inhibition at 200 ug/ml after 24 hrs by agar well diffusion method; type: functional
Bacillus subtilis [9] = experiment: Antibacterial activity against Bacillus subtilis MTCC 441 assessed as reduction in microbial growth after 24 hrs by CLSI based microdilution method; type: functional; details: MTCC 441, 24 h
Escherichia coli [10] = experiment: Antibacterial activity against Escherichia coli MTCC 443 assessed as diameter of zone of inhibition at 200 ug/ml after 24 hrs by agar well diffusion method; type: functional
Staphylococcus aureus [11] = experiment: Antibacterial activity against Staphylococcus aureus MTCC 96 assessed as diameter of zone of inhibition at 200 ug/ml after 24 hrs by agar well diffusion method; type: functional
Klebsiella pneumoniae [12] = experiment: Antibacterial activity against Klebsiella pneumoniae MTCC 618 assessed as reduction in microbial growth after 24 hrs by CLSI based microdilution method; type: functional; details: MTCC 618, 24 h
[13] = tested on: Staphylococcus epidermidis; experiment: Antibacterial activity against Staphylococcus epidermidis assessed as reduction in microbial growth after 24 hrs by CLSI based microdilution method; type: functional
Klebsiella pneumoniae [14] = experiment: Antibacterial activity against Klebsiella pneumoniae MTCC 618 assessed as diameter of zone of inhibition at 200 ug/ml after 24 hrs by agar well diffusion method; type: functional
[15] = tested on: Mycobacterium tuberculosis; experiment: Antitubercular activity against Mycobacterium tuberculosis H37Rv assessed as log reduction in bacterial population at 10 ug/ml under starvation condition after 7 days by MPN assay; type: functional
[16] = Homo sapiens, HEK293, 24 h, read-out: IC50

| Structure (SMILES) | MIC (Escherichia coli [1]) [µM] | IC50 (CHO-K1) [µM] | MIC [2] [µM] | diameter of the inhibition zone (DIZ) (Pseudomonas aeruginosa [3]) | MIC (Staphylococcus aureus [4]) [µM] | IC50 [5] | MIC (Pseudomonas aeruginosa [6]) [µM] | zone of inhibition at 200 µg/mL (Bacillus subtilis [7]) [mm] | diameter of the inhibition zone (DIZ) [8] | MIC (Bacillus subtilis [9]) [µM] | diameter of the inhibition zone (DIZ) (Escherichia coli [10]) | diameter of the inhibition zone (DIZ) (Staphylococcus aureus [11]) | MIC (Klebsiella pneumoniae [12]) [µM] | MIC [13] [µM] | diameter of the inhibition zone (DIZ) (Klebsiella pneumoniae [14]) | IC50 [5, 16] [µM] | FC [15] |
| --- | --- | --- | --- | --- | --- | --- | --- | --- | --- | --- | --- | --- | --- | --- | --- | --- | --- |
| CC(=O)c1c(O)c(C)c(O)c2c1OC1=CC(=O)/C(=C(/C)NCc3cn(CC(=O)c4c(F)c(F)c(F)c(F)c4F)nn3)C(=O)C12C (stereo unspecified) | > 350 | 67.6 | 39.5 | inactive | > 350 | Non-Toxic | > 350 | 12 | inactive | 158 | inactive | inactive | > 350 | > 350 | inactive | – | – |
| COc1ccccc1N1CCN(C(=O)Cn2cc(CN/C(C)=C3\C(=O)C=C4Oc5c(C(C)=O)c(O)c(C)c(O)c5C4(C)C3=O)nn2)CC1 (stereo unspecified) | > 350 | 40.4 | 9.5 | inactive | > 350 | Non-Toxic | > 350 | 10 | inactive | 305 | inactive | inactive | > 350 | > 350 | inactive | – | – |
| CC(=O)c1c(O)c(C)c(O)c2c1OC1=CC(=O)/C(=C(/C)NCc3cn(CC(=O)N4CCOCC4)nn3)C(=O)C12C (stereo unspecified) | > 350 | 23.3 | 22.3 | inactive | > 350 | – | > 350 | 13 | inactive | 90.7 | inactive | inactive | > 350 | > 350 | inactive | 53.4 | – |
| CC(=O)c1c(O)c(C)c(O)c2c1OC1=CC(=O)/C(=C(/C)NCc3cn(CC(=O)c4cccc(C(F)(F)F)c4)nn3)C(=O)C12C (stereo unspecified) | > 350 | 25.6 | 41 | inactive | > 350 | – | > 350 | 15 | inactive | 40.9 | inactive | inactive | > 350 | > 350 | inactive | 91.3 | – |
| CC(=O)c1c(O)c(C)c(O)c2c1OC1=CC(=O)/C(=C(/C)NCc3cn(CC(=O)c4ccc5ccccc5c4)nn3)C(=O)C12C (stereo unspecified) | > 350 | 67.4 | 5.3 | inactive | > 350 | Non-Toxic | > 350 | 11 | inactive | 169 | inactive | inactive | > 350 | > 350 | inactive | – | 2.1 |
| CC(=O)c1c(O)c(C)c(O)c2c1OC1=CC(=O)/C(=C(/C)NCc3cn(CC(=O)c4ccc(F)c(F)c4)nn3)C(=O)C12C (stereo unspecified) | > 350 | 53.4 | 5.4 | inactive | > 350 | – | > 350 | 12 | inactive | 173 | inactive | inactive | > 350 | > 350 | inactive | 52 | 2.5 |
| CC(=O)c1c(O)c(C)c(O)c2c1OC1=CC(=O)/C(=C(/C)NCc3cn(CCN4C(=O)c5ccccc5S4(=O)=O)nn3)C(=O)C12C (stereo unspecified) | – | 12.1 | 2.5 | – | – | – | – | – | – | – | – | – | – | – | – | 91.8 | 2.8 |
